According to patent US11565998B2, “Succinate prodrug, compositions containing the succinate prodrug and uses thereof” (ABLIVA AB, priority 2019, dated 2023):

System: rotenone-mediated inhibition of complex 1
Assay: Pig model of rotenone induced mitochondrial complex 1 dysfunction
Format: in vivo, Yorkshire landrace hybrid pigs
Details: rotenone infusion 7.1 mg/hr for 1.5 hours, below quantification
Experimental: To study the effect of rotenone-mediated inhibition of complex 1, Yorkshire landrace hybrid pigs were anaesthetised and implanted with venous catheters for simultaneous infusion of rotenone and Compound 1 or vehicle (PBS). Rotenone (7.1 mg/hr) was infused during 1.5 hours. Compound 1 was infused at a constant rate of 2 mg/kg/min over a period of 2.5 hours. The control animal was infused with PBS. Blood samples were taken with 30 min intervals and plasma was separated by centrifugation. Microdialysates were collected by inserting a microdialysis probe into the striatum of the brain and analysed for lactate using an ISCUS instrument (MDialysis). At the end of infusion, the animal was euthanised and terminal blood and organ samples were collected. Plasma and tissue samples were stored frozen and later analysed for succinate in an LC/MS method using a Thermo Vanquish UPLC+Thermo Quantis triple quadrupole MS instrument, an Acquity UPLC HSS C18 (100×2.1 mm, 1.8 μm) column with guard filter and gradient elution; A=0.1% Formic acid, B=Acetonitrile. [13C]-labelled succinate was used as internal standard. Lactate data were expressed as percentage of the baseline value obtained before start of rotenone infusion.

C=C(C)[C@H]1Cc2c(ccc3c2O[C@@H]2COc4cc(OC)c(OC)cc4[C@@H]2C3=O)O1 [Rotenone]
tissue concentrations of succinate: < 2 µM
